Experimental data: patent US20100184644A1, “MUCOSAL REPAIR BY TFF DIMER PEPTIDES” (priority 2001, published 2010)
No end group written: not given here.

Experiments:
[1] = tested on: mucin I (crude mucin, type II from porcine stomach); assay: Oscillatory rheometer measurement of mucin solution and mucin/TFF3 dimer gel-like material; conditions: for Elastic modules G′ / Viscous modulus G″: 2 ml 10% (w/v) mucin I + 10 mg TFF3 dimer in 0.4 ml water, 30 min, 20° C.
Method: FIG. 3. Oscillatory measurement of mucin solution (a) and mucin/TFF3 dimer peptide gel-like material (b). 2 ml of 10% (w/v) mucin I dissolved in 0.05% (w/v) sodiumazide was added 0.4 ml of water (a) or 0.4 ml of water containing 10 mg TFF3 dimer peptide (b). After 30 min at 20° C. a sinosoidally varying stress was applied and the strain response was detected at different frequencies. The complex viscosity (η*) ? the elastic modulus (G′) ? and the viscous modulus (G″) ? was calculated and plotted as a function of different frequencies.
(§1) Rheological measurements. Rheological properties were measured by the use of a rotational Reologica Rheometer (Reologica Instriments AB, Lund, Sweden). The instrument is equipped with a stainless steel C40 4 cone-plate (40 mm diameter plate with an angle of 4 degree) requiring a sample volume of at least 1.2 ml. The instrument was operated using instrument standard software (Version 3.6) allowing several different types of measurements. In the present study we have used the measuring programs: Constant Rate (viscosity and stress as a function of shear rate), Oscillation (complex viscosity, elastic modulus and viscous modulus at different frequencies) and Oscillation Stress Sweep (to identify the stress range inside which the measurement results are linear i.e. independent of the applied stress).
In order to characterise the mucin/TFF dimer peptide gel-like structure, the technique of oscillatory measurement in which the gel-like material are subjected to a sinusoidaily varying stress is applied and the strain response is measured. Before this measurement is carried out an oscillation stress sweep programme is used to define the so-called linear viscoelastic region. Inside this region no change of the mucin/TFF dimer peptide structure occurs and the relation between the applied stress and the measured quantities is linear.
This type of experiments allow the estimation of several rheological parameters as a function of frequency: complex viscosity η*, elastic modulus G′ and viscous modulus G″ (for detailed rheological theory see Barnes, H. A. (1989) An introduction to rheology. Elsevier and Ferguson, J. and Kemblowski, Z. (1991) Applied fluid rheology. Elsevier)

[2] = tested on: mucin I (crude mucin, type II from porcine stomach); assay: Viscosity versus shear rate (constant rate rheometer programme); conditions: 2 ml 10% (w/v) mucin I + 7.05 mg TFF3 dimer; 30 min, 20° C.; FIG. 4
Method: FIG. 4. Viscosity versus shear rate of TFF3 dimer peptides. 2 ml 10% (w/v) mucin I dissolved in 0.05% sodiumazide was added 7.05 mg TFF3 dimer dissolved in water. After 30 min at 20° C. the viscosity was measured as function of shear rate using the software programme: “constant rate”. ? mucin I alone; Δ—Δ: mucin I+TFF3 dimer.
as §1

[3] = tested on: Mitomycin C induced colitis; assay: Mitomycin C induced colitis model, luminal TFF3; type: in vivo, rat
From the text: (§2) Methods: 32 female wistar rats weighing 200 g were used in the study. The effect of luminal TFF3 was investigated in two rat models of colitis—the Mitomycin C induced colitis model (Keshavarzian A. et al. J. Lab Clin. Med. 1992; 120:778-91) and the dextran induced colitis model (Mottet N K. Gastroenterology 1972; 62:1269-71). TFF3 was administrated directly into the proximal part of the colon by means of a soft polyethylene tube which in anaesthezised rats at a laparotomy, was inserted into the colonic lumen, secured by 6-0 silk sutures and lead subcutaneously to the neck region of the rat.
Mitomycin C colitis: In 16 rats colitis was induced by means of Mitomycin C, 3.75 mg/kg. Eight of the rats were given TFF3, 5 mg/kg in 0.5 ml H2O, two times each day from day 4-7 into the colonic tube. The 8 controls received NaCl. The rats were sacrificed by means of an overdose of barbiturate 8 days after mitomycin administration. The colon was fixed by intraluminal injection of 10% formalin, and after 10 minutes opened and suspended on a polyethylene plate. […] The colonic specimens were investigated by means of a Wild Photomacroscope—the extent of disease and the number of ulcerations were quantitated. […] The severety of colitis was scored by means of a histologic colitis score (FIG. 5, Williams K L. et al. Gastroenterology 2001; 120:925-37).

dextran induced colitis = assay: Dextran induced colitis model, luminal TFF3; type: in vivo, rat
From the text: as §2
Dextran colitis: In 16 rats colitis was induced by means of dextran sulphate sodium 5% administered in the drinking water. Eight of the rats were given TFF3, 5 mg/kg in 0.5 ml H2O into the colonic tube, two times each day from the day before the initiation of dextran supplementation till day 9, where the rats were sacrificed. The 8 controls recieved NaCl. The rats were sacrificed by means of an overdose of barbiturate. The colon was fixed by intraluminal injection of 10% formalin, and after 10 minutes opened and suspended on a polyethylene plate. After further 24 hours fixation the specimens were flushed with water and surface stained with 0.3% Alcian Green 3BX. The colonic specimens were investigated by means of a Wild Photomacroscope—the extent of disease and the number of ulcerations were quantitated. For histologic analysis specimens were taken out (in a blinded way) from the proximal, middle and distal colon and embedded in paraffin. Histologic sections of 5 μm were stained with PAS-hematoxylin-aurentia. The severety of colitis was scored by means of a histologic colitis score (Williams K L. et al. Gastroenterology 2001; 120:925-37).

| Substance | Elastic modules G′ ([1]; 0.01 Hz) [Pa] | Viscous modulus G″ ([1]; 0.01 Hz) [Pa] | Elastic modules G′ ([1]; 0.1 Hz) [Pa] | Viscous modulus G″ ([1]; 0.1 Hz) [Pa] | Elastic modules G′ ([1]; 1 Hz) [Pa] | Viscous modulus G″ ([1]; 1 Hz) [Pa] | Elastic modulus and viscous modulus compared to the mucin solution ([1]; mucin/TFF3 dimer gel-like structure vs mucin solution) | Effect on the viscosity of the mucin I solution [2] | Overall colitis score (histologic) ([3]; rat, TFF3 5 mg/kg intraluminal twice daily day 4-7, control (NaCl) 10.8, p<0.01) | Severity of mitomycin induced colitis ([3]; rats, intraluminal treatment) | Overall colitis score (histologic) (dextran induced colitis; rat, TFF3 5 mg/kg intraluminal twice daily till day 9, control (NaCl) 3.18, p<0.05) | Histologic colitis score in the midsegment of the colon (dextran induced colitis; rat, TFF3 5 mg/kg intraluminal twice daily, control 1.8, p<0.05) | Severity of dextran induced colitis (dextran induced colitis; rats, intraluminal treatment) |
| --- | --- | --- | --- | --- | --- | --- | --- | --- | --- | --- | --- | --- | --- |
| TFF3 dimer: dimer form of recombinant human TFF3; two TFF3 monomers linked by a disulfide bond between Cys57 of each monomer (EEYVGLSANQCAVPAKDRVDCGYPHVTPKECNNRGCCFDSRIPGVPWCFKPLQEAECTF; not fully specified (bridges); also: homodimer via disulfide between Cys57 of each monomer) | 19 | 18 | 52 | 37 | 86 | 54 | dramatically increased | significant effect | – | – | – | – | – |
| TFF3: trefoil factor 3 given intraluminally to rats; Example 2 does not state monomer or dimer form (EEYVGLSANQCAVPAKDRVDCGYPHVTPKECNNRGCCFDSRIPGVPWCFKPLQEAECTF; not fully specified (bridges); cysteine pairing not given here; UniProt Q07654 22-80, looked up) | – | – | – | – | – | – | – | – | 3.4 | reduces the severity | 1.1 | 0.4 | reduces the severity |
